The experiment concerns the target T1, Xenopus laevis Aurora B/INCENP complex (Xenopus laevis, UniProt Q6DE08).
T1 construct: equipped at the N-terminal position with a GST tag (amino acids 60-361); GST (N, cleaved yes); made in house; host or cells: E. coli BL21 (DE3)
The experiment can be described thus: Aurora-B kinase assay (radioactive enzyme inhibition assay). It counts as biochemical. The settings on record: test substance at 1 μM; percentage of the positive control (maximum value without test substance). The source says: Example Aurora-B Kinase Assay
A radioactive enzyme inhibition assay was developed using E. coli-expressed recombinant Xenopus laevis Aurora B wild-type protein equipped at the N-terminal position with a GST tag (amino acids 60-361) in a complex with Xenopus laevis INCENP (amino acids 790-847), which is obtained from bacteria and purified. In equivalent manner a Xenopus laevis Aurora B mutant (G96V) in a complex with Xenopus laevis INCENP^790-847 may also be used.
Expression and Purification
The coding sequence for Aurora-B^60-361 from Xenopus laevis is cloned into a modified version of pGEX-6T (Amersham Biotech) via BamHI and SalI cutting sites. The vector contains two cloning cassettes which are separated by a ribosomal binding site, allowing bi-cistronic expression. In this configuration Xenopus laevis Aurora B is expressed by the first cassette, and the Xenopus laevis INCENP^790-847 is expressed by the second cassette. The resulting vector is pAUB-IN^847.
First of all the E. coli strain BL21 (DE3) is co-transformed with pUBS520 helper plasmid and pAUB-IN^847, after which protein expression is induced using 0.3 mM IPTG at an OD600 of 0.45-0.7. The expression is then continued for approx. 12-16 h at 23-25° C. with agitation.
The bacteria are then removed by centrifuging and the pellet is lysed in lysis buffer (50 mM Tris/Cl pH 7.6, 300 mM NaCl, 1 mM DTT, 1 mM EDTA, 5% glycerol, Roche Complete Protease Inhibitor tablets) using ultrasound, using 20-30 mL lysis buffer per liter of E. coli culture. The lysed material is freed from debris by centrifugation (12000 rpm, 45-60 min, JA20 rotor). The supernatant is incubated with 300 μL of equilibrated GST Sepharose Fast Flow (Amersham Biosciences) per liter of E. coli culture for 4-5 h at 4° C. Then the column material is washed with 30 volumes of lysis buffer and then equilibrated with 30 volumes of cleavage buffer (50 mM Tris/Cl pH 7.6, 150 mM NaCl, 1 mM DTT, 1 mM EDTA). To cleave the GST tag from Aurora B, 10 units of Prescission Protease (Amersham Biosciences) are used per milligram of substrate and the mixture is incubated for 16 h at 4° C. The supernatant which contains the cleavage product is loaded onto a 6 mL Resource Q column (Amersham Biosciences) equilibrated with ion exchange buffer (50 mM Tris/Cl pH 7.6, 150 mM NaCl, 1 mM DTT, 1 mM EDTA). The Aurora B/INCENP complex is caught as it flows through, then concentrated and loaded onto a Superdex 200 size exclusion chromatography (SEC) column equilibrated with SEC buffer (10 mM Tris/Cl pH 7.6, 150 mM NaCl, 1 mM DTT, 1 mM EDTA). Fractions which contain the AuroraB/INCENP complex are collected and concentrated using Vivaspin concentrators (molecular weight exclusion 3000-5000 Da) to a final concentration of 12 mg/mL. Aliquots (e.g. 240 ng/μL) for kinase assays are transferred from this stock solution into freezing buffer (50 mM Tris/Cl pH 8.0, 150 mM NaCl, 0.1 mM EDTA, 0.03% Brij-35, 10% glycerol, 1 mM DTT) and stored at −80° C.
Test substances are placed in a polypropylene dish (96 wells, Greiner #655 201), in order to cover a concentration frame of 10 μM-0.0001 μM. The final concentration of DMSO in the assay is 5%. 30 μL of protein mix (50 mM tris/Cl pH 7.5, 25 mM MgCl2, 25 mM NaCl, 167 μM ATP, 10 ng Xenopus laevis Aurora B/INCENP complex in freezing buffer) are pipetted into the 10 μl of test substance provided in 25% DMSO and this is incubated for 15 min at RT. Then 10 μL of peptide mix (100 mM tris/Cl pH 7.5, 50 mM MgCl2, 50 mM NaCl, 5 μM NaF, 5 μM DTT, 1 μCi gamma-P33-ATP [Amersham], 50 μM substrate peptide [biotin-[…] or multimers thereof, or biotin-[…] or multimers thereof, or biotin-[…]]) are added. The reaction is incubated for 75 min (ambient temperature) and stopped by the addition of 180 μL of 6.4% trichloroacetic acid and incubated for 20 min on ice. […]
T1 sequence (Q6DE08 60-361): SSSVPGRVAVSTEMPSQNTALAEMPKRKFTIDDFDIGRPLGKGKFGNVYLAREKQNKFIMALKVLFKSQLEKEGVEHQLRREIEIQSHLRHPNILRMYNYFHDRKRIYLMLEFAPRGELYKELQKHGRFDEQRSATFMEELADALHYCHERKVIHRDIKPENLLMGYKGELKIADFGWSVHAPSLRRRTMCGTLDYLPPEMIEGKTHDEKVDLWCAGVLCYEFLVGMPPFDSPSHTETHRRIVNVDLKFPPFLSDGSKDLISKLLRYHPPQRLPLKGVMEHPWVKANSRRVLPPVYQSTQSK
T1 sequence (O13024 790-847 partner limits assumed): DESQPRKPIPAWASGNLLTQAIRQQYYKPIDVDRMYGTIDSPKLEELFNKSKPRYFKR
As to `COc1ccc(-c2ccc3c(c2)NC(=O)/C3=C(\Nc2ccc(CN(C)C)cc2)c2ccccc2)cn1` [Example 70], the remaining activity at 1 µM came to 17.3%.
Consider `O=C(C#Cc1ccc2c(c1)NC(=O)/C2=C(\Nc1ccc(CN2CCCC2)cc1)c1ccccc1)Nc1ccccc1` [Example 174], for which the remaining activity at 1 µM worked out at 2.67%.
For `COc1cc(N/C(=C2\C(=O)Nc3cc(-c4ccc(NC(C)C)nc4)ccc32)c2ccccc2)ccc1C(=O)N1C[C@H]2C[C@@H]1CN2C` [Example 108], the remaining activity at 1 µM amounted to 1.45%.
In the case of `CCNC(=O)C#Cc1ccc2c(c1)NC(=O)/C2=C(\Nc1ccc(CN(C)C)c(Cl)c1)c1ccccc1` [Example 177] it was 1.83%; in that of `CCN1CCN(C(=O)c2ccc(N/C(=C3\C(=O)Nc4cc(-c5ccc(NC(C)C)nc5)ccc43)c3ccccc3)cc2)CC1` [Example 113], 4.25%.
Consider `CCNc1ccc(-c2ccc3c(c2)NC(=O)/C3=C(\Nc2ccc(CN(C)C)cc2)c2ccccc2)cn1` [Example 5], for which the remaining activity at 1 µM stood at 7.08%.
As to `CC(C)Nc1ccc(-c2ccc3c(c2)NC(=O)/C3=C(\Nc2ccc(C(=O)N3CCN[C@@H](C)C3)cc2)c2ccccc2)cn1` [Example 133], the remaining activity at 1 µM turned out to be 0.55%.
Regarding `O=C(C#Cc1ccc2c(c1)NC(=O)/C2=C(\Nc1ccc(CN2CCCC2)cc1)c1ccccc1)NCC(F)F` [Example 168], the remaining activity at 1 µM is 1.85%.
Take `CN(C)Cc1ccc(N/C(=C2\C(=O)Nc3cc(-c4cnc(N5CCCC5)nc4)ccc32)c2ccccc2)cc1` [Example 10]: the remaining activity at 1 µM came to 10.6%.
For the compound `CC(=O)Nc1ccc(-c2ccc3c(c2)NC(=O)/C3=C(\Nc2ccc(CN(C)C)cc2)c2ccccc2)cc1` [Example 72], the remaining activity at 1 µM was found to be 3.37%.
As for `CC(C)Nc1ncc(-c2ccc3c(c2)NC(=O)/C3=C(\Nc2ccc(OCCN3CCCC3)cc2)c2ccccc2)cn1` [Example 88], the remaining activity at 1 µM turned out to be 3.13%.
As to `CN(C)Cc1ccc(N/C(=C2\C(=O)Nc3cc(-c4cnc(NCC5CC5)nc4)ccc32)c2ccccc2)cc1` [Example 51], the remaining activity at 1 µM was determined as 3.84%.
Take `CCCNc1ccc(-c2ccc3c(c2)NC(=O)/C3=C(\Nc2ccc(CN(C)C)cc2)c2ccccc2)cn1` [Example 57]: the remaining activity at 1 µM amounted to 5.74%.
For the compound `CC(C)Nc1ncc(-c2ccc3c(c2)NC(=O)/C3=C(\Nc2ccc(N3CCN(C)CC3)cc2)c2ccccc2)cn1` [Example 92], the remaining activity at 1 µM amounted to 3.85%.
On to `CNC(=O)C#Cc1cc2c(cc1F)/C(=C(/Nc1ccc(CN(C)C)cc1)c1ccccc1)C(=O)N2` [Example 158], for which the remaining activity at 1 µM amounted to 7.53%.
As for `O=C(C#Cc1ccc2c(c1)NC(=O)/C2=C(\Nc1ccc(CN2CCCC2)cc1)c1ccccc1)NCCF` [Example 169], the remaining activity at 1 µM was found to be 1.71%.
In the case of `COc1cc(N/C(=C2\C(=O)Nc3cc(-c4cnc(NC(C)C)nc4)ccc32)c2ccccc2)ccc1C(=O)O` [Example 80] it was 2.32%; in that of `COc1cc(N/C(=C2\C(=O)Nc3cc(-c4ccc(NC(C)C)nc4)ccc32)c2ccccc2)ccc1C(=O)N(C)CCN(C)C` [Example 111], 2.35%.
Take `COc1cc(N/C(=C2\C(=O)Nc3cc(-c4ccc(NC(C)C)nc4)ccc32)c2ccccc2)ccc1C(=O)N(C)C1CCN(C)CC1` [Example 112]: the remaining activity at 1 µM amounted to 1.7%.
`CN(C)Cc1ccc(N/C(=C2\C(=O)Nc3cc(-c4ccccc4NS(C)(=O)=O)ccc32)c2ccccc2)cc1` [Example 23]: the remaining activity at 1 µM was 70.6%.
Take `CN(C)Cc1ccc(N/C(=C2\C(=O)Nc3cc(C#CC(=O)NC4CCCC4)ccc32)c2ccccc2)cc1` [Example 163]: the remaining activity at 1 µM was 2.08%.
For the compound `CC(=O)Nc1cccc(-c2ccc3c(c2)NC(=O)/C3=C(\Nc2ccc(CN(C)C)cc2)c2ccccc2)c1` [Example 69], the remaining activity at 1 µM came to 17.2%.
`CC(C)Nc1ccc(-c2ccc3c(c2)NC(=O)/C3=C(\Nc2ccc(C(=O)N3CCC[C@H]3CN3CCCC3)cc2)c2ccccc2)cn1` [Example 127]: the remaining activity at 1 µM was determined as 4.67%.
In the case of `CN(C)Cc1ccc(N/C(=C2\C(=O)Nc3cc(-c4ccc(N5CCOCC5)nc4)ccc32)c2ccccc2)cc1` [Example 14], the remaining activity at 1 µM was found to be 20.7%.
With `CC(C)CN1CCN(C(=O)c2ccc(N/C(=C3\C(=O)Nc4cc(-c5ccc(NC(C)C)nc5)ccc43)c3ccccc3)cc2)CC1` [Example 114], the remaining activity at 1 µM was determined as 7.11%.
Take `CN(C)Cc1ccc(N/C(=C2\C(=O)Nc3cc(-c4cn[nH]c4)ccc32)c2ccccc2)cc1` [Example 61]: the remaining activity at 1 µM came to 14.1%.
In the case of `Cc1cnccc1-c1ccc2c(c1)NC(=O)/C2=C(\Nc1ccc(CN(C)C)cc1)c1ccccc1` [Example 20] it was 107%.
Consider `CN(C)Cc1ccc(N/C(=C2\C(=O)Nc3cc(-c4ccc(NC5CC5)nc4)ccc32)c2ccccc2)cc1` [Example 59], for which the remaining activity at 1 µM came out at 9.19%.
In the case of `CC(C)Nc1ccc(-c2ccc3c(c2)NC(=O)/C3=C(\Nc2ccc(C(=O)N3CC[C@@H](N(C)C)C3)cc2)c2ccccc2)cn1` [Example 137], the remaining activity at 1 µM is 0.67%.
Regarding `CN(C)Cc1ccc(N/C(=C2\C(=O)Nc3cc(C#CC(=O)NCCO)ccc32)c2ccccc2)cc1` [Example 166], the remaining activity at 1 µM was 1.93%.
Consider `CC(C)Nc1ncc(-c2cc3c(cc2F)/C(=C(/Nc2ccc(CN(C)C)cc2)c2ccccc2)C(=O)N3)cn1` [Example 73], for which the remaining activity at 1 µM was 5.59%.
With `Cc1cc(N/C(=C2\C(=O)Nc3cc(-c4cnc(NC(C)C)nc4)ccc32)c2ccccc2)ccn1` [Example 87], the remaining activity at 1 µM turned out to be 2.67%.
`CC(C)Nc1ncc(-c2ccc3c(c2)NC(=O)/C3=C(\NC2CCOCC2)c2ccccc2)cn1` [Example 77]: the remaining activity at 1 µM is 96.2%.
In the case of `CC(C)Nc1ccc(-c2ccc3c(c2)NC(=O)/C3=C(\Nc2ccc(C(=O)N3CCC[C@@H]3CN3CCCC3)cc2)c2ccccc2)cn1` [Example 130] it was 1.43%; in that of `COc1cc(N/C(=C2\C(=O)Nc3cc(-c4ccc(NC(C)C)nc4)ccc32)c2ccccc2)ccc1C(=O)N1CCCN(C)CC1` [Example 105], 1.57%; in that of `CC(C)Nc1ccc(-c2ccc3c(c2)NC(=O)/C3=C(\Nc2ccc(C(=O)N3CCC(N4CCCC4)CC3)cc2)c2ccccc2)cn1` [Example 122], 4%.
On to `COc1cc(N/C(=C2\C(=O)Nc3cc(-c4ccc(NC(C)C)nc4)ccc32)c2ccccc2)ccc1C(=O)N1CCN(C(C)C)CC1` [Example 106], for which the remaining activity at 1 µM came out at 2.94%.
Regarding `COc1cc(N/C(=C2\C(=O)Nc3cc(-c4ccc(NC(C)C)nc4)ccc32)c2ccccc2)ccc1C(=O)N1CCN(C)CC1` [Example 109], the remaining activity at 1 µM worked out at 2.08%.
With `CCN1CCC2(CCN(C(=O)c3ccc(N/C(=C4\C(=O)Nc5cc(-c6ccc(NC(C)C)nc6)ccc54)c4ccccc4)cc3OC)C2)C1` (centres unmarked) [Example 104], the remaining activity at 1 µM worked out at 1.71%.
As for `CN(C)Cc1ccc(N/C(=C2\C(=O)Nc3cc(-c4ccc(N)nc4)ccc32)c2ccccc2)cc1` [Example 66], the remaining activity at 1 µM was 18.3%.
For `CC(C)Nc1ccc(-c2ccc3c(c2)NC(=O)/C3=C(\Nc2ccc(C(=O)N3CCN[C@H](C)C3)cc2)c2ccccc2)cn1` [Example 115], the remaining activity at 1 µM is 3.25%.

Source of the values: patent publication US8853420B2, “Compounds” (Boehringer Ingelheim International GmbH, priority 2008, dated 2014).
